In PubChem BioAssay (NCI):
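Each compound was tested at five concentrations against cells in 96-well plates for 48 hours. Here, GI50 denotes the concentration required for 50% inhibition of growth. At the TGI there is no net growth.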 Where a SMILES comes first, the peptide text is derived from it. [ ]: non-standard residue; d: D form. pGlu = O=C1CC[CH](C(=O)O)N1

Test system: MDA-MB-468 breast
Assay: DTP human tumour cell line panel, 48 h

SMILES	GI50 [µM]	TGI [µM]
C=CCN=c1sc2c(n1NC(=O)c1cc3ccc1CCc1ccc(cc1)CC3)C(=O)c1ccccc1C2=O	2.28	5.72
N#Cc1ccc(OCc2nc(N)nc(N)c2-c2ccc(Cl)c(Cl)c2)cc1	1.53	53.9
CCN(Cc1cc(Nc2nc(C)cn3c(-c4cn[nH]c4)cnc23)sn1)C(C)(C)CO	< 0.0123	0.233
C[C@H](NC(=O)[C@@H](C)N)[C@H](Oc1ccc2c(cnn2-c2ccc(F)cc2)c1)c1ccc2c(c1)OCCO2	2.12	4.05
COc1cccc(N2CCN(CC(=O)N3CCN(c4nnc(-c5ccc(Cl)cc5)c(-c5ccc(Cl)cc5)n4)CC3)CC2)c1	22.5	> 100
O=c1[nH]c(=O)c2cn[nH]c2[nH]1	> 100	> 100
O=C(Oc1cccc(F)c1OC(=O)c1cccc(O)c1)c1cccc(O)c1	18.2	55.2
CN(CCO)CC[C@H](CSc1ccccc1)Nc1ccc(S(=O)(=O)NC(=O)c2ccc(N3CCC([C@@H](O)c4ccccc4-c4ccc(Cl)cc4)CC3)cc2)cc1S(=O)(=O)C(F)(F)F	1.87	5.19
IP(CCCSc1n(Cc2ccc3ccccc3c2)c(-c2ccccc2)c(-c2ccccc2)[n+]1Cc1ccc2ccccc2c1)(c1ccccc1)(c1ccccc1)c1ccccc1	2.25	5.97
O=C(c1ccccc1)c1ccccc1-c1ccccc1	0.768	3.7
CCN1C(=O)N(CC)C2C1NN=c1s/c(=C\c3cccc(F)c3)c(=O)n12 (stereo not drawn)	0.183	> 100
CCNC(=O)C1CCCN1C(=O)C(CCCN=C(N)N)NC(=O)C(CC(C)C)NC(=O)C(CC(C)C)NC(=O)C(Cc1ccc(O)cc1)NC(=O)C(CO)NC(=O)C(Cc1c[nH]c2ccccc12)NC(=O)C(Cc1cnc[nH]1)NC(=O)C1CCC(=O)N1 (stereo not drawn) ([pGlu]HWSYLLRP-NHEt; configuration not given here)	> 100	> 100
ClCc1cccc2c(CCl)cccc12	1.12	3.05
CCN(Cc1ccc(Cl)cc1)c1ccc(CO)c(Cl)c1	0.02	0.0626
COc1ccc(C(=S)N2CCN(c3cccc(C)c3)CC2)cc1OC	2.65	> 100
O=C(Nc1cc(Cl)cc(Cl)c1)Nc1nc2ccc([N+](=O)[O-])cc2s1	1	4.22
Clc1nc(Cl)c2ncn(CC3(Cn4cnc5c(Cl)nc(Cl)nc54)COC3)c2n1	0.192	0.408
C[C@]12CC[C@@H]3c4ccc(OC(=O)N(CCCl)CCCl)cc4CC[C@H]3[C@@H]1CC[C@@H]2O	1.69	4.21
CCOC(=O)c1c(C)nc2c(c1N)CC(=O)N2Cc1ccc(OC)cc1	27.3	> 100
Fc1ccc(C2CC(c3cccc(Nc4ccncc4)c3)=NN2c2ccc(Cl)cc2)cc1 (stereo not drawn)	1.42	2.93
O=c1[nH]nnc2c1ncn2C1OC(CO)C(O)C1O (stereo not drawn)	3.36	> 100
Cc1cccc(/C=C/c2c(C(=O)/C=C/c3ccccc3)c(C)nc3ccccc23)c1	1.9	3.79
CCOC(=O)Nc1ccc2c(c1)/C(=N\NC(N)=S)c1ccccc1-2	3.46	25
C=C1C(=O)O[C@H]2[C@H]1CC/C(COC(=O)CSCSCC(=O)OC/C1=C/CC[C@@]3(C)O[C@H]3[C@H]3OC(=O)C(=C)[C@@H]3CC1)=C\CC[C@@]1(C)O[C@@H]21	1.07	2.7
